Each block holds one compound with its values, some of them ahead of it.
Tests used:
[1] = Absorbance of the saturated dye solution at 5 micron thickness (Beer-Lambert law, UV-vis); assay type: physicochemical; conditions: in decane; for Absorbance (theoretical), at 5 micron thickness: Table 8
Protocol: (§1) The absorbance is measured using a Hitachi UV3310 UV-vis spectrophotometer.

[2] = Solubility testing: saturation concentration of dye in non-polar solvent; conditions: for Saturation concentration (%): in decane
Protocol: A typical solubility test consists of one or more dyes dissolved in a suitable non-polar (hydrophobic) solvent, for example decane, at a concentration of 20% by weight for each dye. Samples are first vortex mixed for approximately 3 minutes and sonicated at 50° C. br 30 mins. They are then stirred for approximately 16 hours to ensure complete saturation. After stirring, samples are left to stand at room temperature for 2 hours before filtering through a 200 nm PTFE filter to give a saturated solution of dye in solvent.
The saturation concentrations and/or absorbance data for cells of varying thickness can be derived using the Beer-Lambert law:
Where A is absorbance (arbitrary unit) e=Molar extinction coefficient, c=Concentration (mol/l), l=path length (cm).
as §1

[3] = at the wavelength printed in the row, Table 6b
[4] = at the wavelength printed in the row, Table 5
[5] = at the wavelength printed in the row

Structure (SMILES): CCCCCCCCN(CCCCCCCC)c1ccc(/N=N/c2cc(OCC(CC)CCCC)c(/N=N/c3ccc([N+](=O)[O-])cc3[N+](=O)[O-])cc2OCC(CC)CCCC)c(C)c1 (stereo not shown) [Dye 1a, 4-((E)-(4-((E)-(2,4-Dinitrophenyl)diazenyl)-2,5-bis(2-ethylhexyloxy)phenyl)diazenyl)-3-methyl-N,N-dioctylaniline]
Absorbance (theoretical), at 5 um thickness ([1]; at the wavelength printed in the row, Table 7): 0.188
Saturation wt % in decane ([2]; Table 1 Blue/Black Dyes): 100 wt %
Saturation concentration (%) ([2]; Table 7): 1.000%

Structure (SMILES): CCCCC(CC)COc1cc(/N=N/c2ccc([N+](=O)[O-])cc2[N+](=O)[O-])c(OCC(CC)CCCC)cc1/N=N/c1ccc(N(CC(CC)CCCC)CC(CC)CCCC)cc1C (stereo not shown) [Dye 1b, 4-((E)-(4-((E)-(2,4-Dinitrophenyl)diazenyl)-2,5-bis(2-ethylhexyloxy)phenyl)diazenyl)-3-methyl-N,N-di-(2-ethylhexyl)aniline]
Saturation wt % in decane ([2]; Table 1 Blue/Black Dyes): 17.19 wt %

Structure (SMILES): CCCCCCCCCCCCCCCCCCN(CCCCCCCCCCCCCCCCCC)c1cc(NC(C)=O)c(/N=N/c2c(C#N)cc([N+](=O)[O-])cc2C#N)cc1OC [Dye 8, N-(2-((2,6-Dicyano-4-nitrophenyl)diazenyl)-5-(dioctadecylamino)-4-methoxyphenyl)acetamide]
Dye saturation concentration % in Decane as solvent [2]: 0.003%
Dye saturation concentration % in (Decane/dye 2 as solvent) [2]: 0.18%
Dye saturation concentration % in (Decane/dye 12 as solvent) [2]: 0.18%
Saturation wt % in decane ([2]; Table 2 Cyan Dyes): 0.003 wt %

Structure (SMILES): CCCCCCCCN(CCCCCCCC)c1ccc(/N=N/c2snc(C)c2C#N)c(NC(C)=O)c1 [Dye 11, N-(2-((4-Cyano-3-methylisothiazol-5-yl)diazenyl)-5-(dioctylamino)phenyl)acetamide]
Dye saturation concentration % in Decane as solvent [2]: 0.19%
Dye saturation concentration % in (Decane/dye 2 as solvent) [2]: 0.62%
Dye saturation concentration % in (Decane/dye 12 as solvent) [2]: 0.41%
Saturation wt % in decane ([2]; Table 3 Magenta Dyes): 0.19 wt %

Structure (SMILES): CCCCCCCCCCCCCCc1ccc(/N=N/c2c(C)c(C#N)c(=O)n(CC(CC)CCCC)c2O)cc1 (stereo not shown) [Dye 12, (E)-1-(2-Ethylhexyl)-6-hydroxy-4-methyl-2-oxo-5-((4-tetradecylphenyl)diazenyl)-1,2-dihydropyridine-3-carbonitrile]
Absorbance at wavelength, at 5 micron thickness [1, 3]: 0.332
Saturation wt % in decane ([2]; Table 4 Yellow Dyes): 1.03 wt %
Saturation concentration (%) ([2]; Table 6b): 1.03%

Structure (SMILES): CCCCCCCCCCCCCCc1ccc(/N=N/c2c(C)cc(=O)n(CC(CC)CCCC)c2O)cc1 (stereo not shown) [Dye 13, (E)-1-(2-ethylhexyl)-6-hydroxy-4-methyl-5-((4-tetradecylphenyl)diazenyl)pyridin-2(1H)-one]
Absorbance at wavelength, at 5 micron thickness [1, 3]: 0.915
Saturation wt % in decane ([2]; Table 4 Yellow Dyes): 3.72 wt %
Saturation concentration (%) ([2]; Table 6b): 3.72%

Structure (SMILES): CCCCc1ccc(/N=N/c2ccc(N(CCCC)CCCC)cc2)cc1 [Dye 14]
Saturation wt % in decane ([2]; Table 4 Yellow Dyes): 9.95 wt %

Structure (SMILES): CCCCCCCCN(CCCCCCCC)c1ccc(/N=N/c2ccc([N+](=O)[O-])cc2)c(C)c1 [Dye 15, (E)-3-Methyl-4-((4-nitrophenyl)diazenyl)-N,N-dioctylaniline]
Absorbance at wavelength, at 5 micron thickness [1, 4]: 2.765
Saturation wt % in decane ([2]; Table 4 Yellow Dyes): 10.50 wt %
Saturation concentration (%) ([2]; Table 5): 8.58%

Structure (SMILES): CCCCCNc1ccc(NCCCCC)c2c1C(=O)c1ccccc1C2=O [Oil Blue N, reference compound]
Absorbance at wavelength, at 5 micron thickness ([1]; 646 nm, Table 6a): 0.0938
Absorbance at wavelength, at 5 micron thickness [1, 4]: 0.114
Absorbance (theoretical), at 5 micron thickness [1, 5]: 0.0938
Dye saturation concentration % in Decane as solvent [2]: 0.62%
Dye saturation concentration % in (Decane/dye 2 as solvent) [2]: 1.34%
Dye saturation concentration % in (Decane/dye 12 as solvent) [2]: 1.14%
Saturation concentration (%) ([2]; Table 5): 0.657%
Saturation concentration (%) ([2]; Table 6a): 0.657%
Saturation concentration (%) ([2]; Table 8): 0.66%

Structure (SMILES): Cc1ccc(C)c(N=Nc2cc(C)c(N=Nc3c(O)ccc4ccccc34)cc2C)c1 [Oil Red O, reference compound]
Absorbance at wavelength, at 5 micron thickness [1, 4]: 0.2594
Dye saturation concentration % in Decane as solvent [2]: 1.17%
Dye saturation concentration % in (Decane/dye 2 as solvent) [2]: 1.91%
Dye saturation concentration % in (Decane/dye 12 as solvent) [2]: 1.49%
Saturation concentration (%) ([2]; Table 5): 1.615%

Structure (SMILES): CCCCNc1ccc(NCCCC)c2c1C(=O)c1ccccc1C2=O [Solvent Blue 35, reference compound]
Absorbance at wavelength, at 5 micron thickness ([1]; 646 nm, Table 6a): 0.0531
Absorbance at wavelength, at 5 micron thickness [1, 4]: 0.044
Absorbance (theoretical), at 5 micron thickness [1, 5]: 0.0531
Dye saturation concentration % in Decane as solvent [2]: 0.33%
Dye saturation concentration % in (Decane/dye 2 as solvent) [2]: 0.69%
Dye saturation concentration % in (Decane/dye 12 as solvent) [2]: 0.62%
Saturation concentration (%) ([2]; Table 5): 0.385%
Saturation concentration (%) ([2]; Table 6a): 0.385%
Saturation concentration (%) ([2]; Table 8): 0.385%

Structure (SMILES): Cc1ccccc1/N=N/c1ccc(/N=N/c2c(O)ccc3ccccc23)c(C)c1 [Solvent Red 24, reference compound]
Absorbance at wavelength, at 5 micron thickness [1, 4]: 0.1579
Saturation concentration (%) ([2]; Table 5): 0.6%

More lines, now with the values ahead:

Saturation wt % in decane ([2]; Table 1 Blue/Black Dyes): 3.53 wt %
Structure (SMILES): CCCCC(CC)COc1cc(/N=N/c2ccc([N+](=O)[O-])cc2[N+](=O)[O-])c(OCC(CC)CCCC)cc1/N=N/c1ccc(N(CCC(C)CC(C)(C)C)CCC(C)CC(C)(C)C)cc1C (stereo not shown) [Dye 1c, 4-((E)-(4-((E)-(2,4-Dinitrophenyl)diazenyl)-2,5-bis(2-ethylhexyloxy)phenyl)diazenyl)-3-methyl-N,N-d i-(3,5,5-trimethylhexyl)aniline]

Saturation wt % in decane ([2]; Table 1 Blue/Black Dyes): 2.39 wt %
Structure (SMILES): CCCCCCCCCCN(CCCCCCCCCC)c1ccc(/N=N/c2cc(OCC(CC)CCCC)c(/N=N/c3ccc([N+](=O)[O-])cc3[N+](=O)[O-])cc2OCC(CC)CCCC)c(C)c1 (stereo not shown) [Dye 1d, 4-((E)-(4-((E)-(2,4-Dinitrophenyl)diazenyl)-2,5-bis(2-ethylhexyloxy)phenyl)diazenyl)-3-methyl-N,N-di-n-decylaniline]

Saturation wt % in decane ([2]; Table 1 Blue/Black Dyes): 5.17 wt %
Structure (SMILES): CCCCCCCCCCCCN(CCCCCCCCCCCC)c1ccc(/N=N/c2cc(OCC(CC)CCCC)c(/N=N/c3ccc([N+](=O)[O-])cc3[N+](=O)[O-])cc2OCC(CC)CCCC)c(C)c1 (stereo not shown) [Dye 1e, 4-((E)-(4-((E)-(2,4-Dinitrophenyl)diazenyl)-2,5-bis(2-ethylhexyloxy)phenyl)diazenyl)-3-methyl-N,N-di-n-dodecylaniline]

Saturation wt % in decane ([2]; Table 1 Blue/Black Dyes): 15.2 wt %
Structure (SMILES): CCCCCCCCCCCCCCN(CCCCCCCCCCCCCC)c1ccc(/N=N/c2cc(OCC(CC)CCCC)c(/N=N/c3ccc([N+](=O)[O-])cc3[N+](=O)[O-])cc2OCC(CC)CCCC)c(C)c1 (stereo not shown) [Dye 1f, 4-((E)-(4-((E)-(2,4-Dinitrophenyl)diazenyl)-2,5-bis(2-ethylhexyloxy)phenyl)diazenyl)-3-methyl-N,N-di-n-tetradecylaniline]

Saturation wt % in decane ([2]; Table 1 Blue/Black Dyes): 16.67 wt %
Structure (SMILES): CCCCCCCCCCCCN(CCC(C)CC(C)(C)C)c1ccc(/N=N/c2cc(OCC(CC)CCCC)c(/N=N/c3ccc([N+](=O)[O-])cc3[N+](=O)[O-])cc2OCC(CC)CCCC)c(C)c1 (stereo not shown) [Dye 1g, 4-((E)-(4-((E)-(2,4-Dinitrophenyl)diazenyl)-2,5-bis(2-ethylhexyloxy)phenyl)diazenyl)-3-methyl-N-dodecyl-N-(3,5,5-trimethylhexyl)aniline]

From US20150015931A1, “ELECTROWETTING FLUIDS” (Merck Patent GmbH, priority 2012, published 2015)
